Results taken from patent publication US6737383B1, “Herbicidal oxadiazolidines” (priority 1999, dated 2004).

Tests used:
[1] = tested on: soybean; experiment: Test B pre/postemergence soybean; format: in vivo, Glycine max
How it was run: (§1)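 Herbicidal effect was estimated by eye on a ten-point control scale after plants spent twelve to sixteen days in a greenhouse following soil or foliar treatment. Foliar sprays targeted plants at one to four leaves; all doses were formulated in a non-phytotoxic solvent with surfactant.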

[2] = tested on: cocklebur; experiment: Test B pre/postemergence cocklebur; format: in vivo, Xanthium strumarium
How it was run: as §1

[3] = tested on: purple nutsedge; experiment: Test B pre/postemergence purple nutsedge; format: in vivo, Cyperus rotundus
How it was run: as §1

[4] = tested on: crabgrass; experiment: Test B pre/postemergence crabgrass; format: in vivo, Digitaria sanguinalis
How it was run: as §1

[5] = tested on: giant foxtail; experiment: Test B pre/postemergence giant foxtail; format: in vivo, Setaria faberii
How it was run: as §1

[6] = tested on: morningglory; experiment: Test B pre/postemergence morningglory; format: in vivo, Ipomoea hederacea
How it was run: as §1

[7] = tested on: pigweed; experiment: Test B pre/postemergence pigweed; format: in vivo, Amaranthus retroflexus
How it was run: as §1

[8] = tested on: bedstraw; experiment: Test B pre/postemergence bedstraw; format: in vivo, Galium aparine
How it was run: as §1

[9] = tested on: rice; experiment: Test B flood test rice; format: in vivo, Oryza sativa
How it was run: (§2)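 Each value is a visual injury score relative to controls, with 10 meaning complete control and 0 no effect. Evaluation took place twelve to sixteen days after the 2-leaf-stage plants were treated and kept in the greenhouse.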

[10] = tested on: surinam grass; experiment: Test B pre/postemergence surinam grass; format: in vivo, Brachiaria decumbens
How it was run: as §1

[11] = tested on: velvetleaf; experiment: Test B pre/postemergence velvetleaf; format: in vivo, Abutilon theophrasti
How it was run: as §1

[12] = tested on: wild oat; experiment: Test B pre/postemergence wild oat; format: in vivo, Avena fatua
How it was run: as §1

[13] = tested on: bamyardgrass; experiment: Test B flood test barnyardgrass; format: in vivo, Echinochloa crus-galli
How it was run: as §2

[14] = tested on: blackgrass; experiment: Test B pre/postemergence blackgrass; format: in vivo, Alopecurus myosuroides
How it was run: as §1

[15] = tested on: wheat; experiment: Test B pre/postemergence wheat; format: in vivo, Triticum aestivum
How it was run: as §1

[16] = tested on: smallflower flatsedge; experiment: Test B flood test smallflower flatsedge; format: in vivo, Cyperus difformis
How it was run: as §2

[17] = Postemergence, Rate 62 g/ha, scale 0 to 10, 0 is no effect, 10 is complete control
[18] = Preemergence, Rate 125 g/ha, scale of 0 to 10 where 0 is no effect and 10 is complete control
[19] = Preemergence, Rate 250 g/ha, scale 0 (no effect) to 10 (complete control)
[20] = Rate 62 g/ha, Preemergence, scale 0 to 10
[21] = Rate 250 g/ha, Postemergence, scale 0 to 10, 0 is no effect, 10 is complete control
[22] = Rate 500 g/ha, Postemergence, scale 0 to 10, 0 is no effect, 10 is complete control
[23] = Rate 500 g/ha, Preemergence, scale 0 to 10 (0 no effect, 10 complete control)
[24] = Postemergence, Rate 125 g/ha, scale of 0 to 10 where 0 is no effect and 10 is complete control
[25] = Pre-emergence, Rate 62 g/ha, scale 0 to 10, 0 is no effect, 10 is complete control
[26] = Rate 125 g/ha, Pre-emergence section (flood test species), scale 0 to 10, 0 no effect, 10 complete control
[27] = Rate 250 g/ha, Pre-emergence (flood test species), scale 0 to 10, 0 is no effect, 10 is complete control
[28] = Rate 500 g/ha, Pre-emergence section of Table B, 0 to 10 scale (0 no effect, 10 complete control)

## CC(C)N(C(=O)n1oc(=O)n(CC2=NOCCO2)c1=O)c1ccc(F)cc1F [Compound 758]
[1]; [17]
  Plant response rating, Soybean: 4
[1]; [18]
  Plant response rating, Soybean: 0
[1]; [19]
  Soybean plant response rating: 0
[1]; [20]
  Soybean plant response rating: 0
[1]; [21]
  Soybean plant response rating: 5
[1]; [22]
  Soybean plant response rating: 5
[1]; [23]
  Soybean plant response rating: 0
[2]; [17]
  Plant response rating, Cocklebur: 0
[2]; [24]
  Cocklebur plant response rating: 0
[2]; [18]
  Plant response rating, Cocklebur: 0
[2]; [19]
  Cocklebur plant response rating: 0
[2]; [20]
  Cocklebur plant response rating: 0
[2]; [21]
  Cocklebur plant response rating: 4
[2]; [22]
  Cocklebur plant response rating: 4
[2]; [23]
  Cocklebur plant response rating: 0
[3]; [17]
  Plant response rating, Nutsedge: 0
[3]; [24]
  Nutsedge plant response rating: 0
[3]; [18]
  Plant response rating, Nutsedge: 0
[3]; [19]
  Nutsedge plant response rating: 0
[3]; [20]
  Nutsedge plant response rating: 0
[3]; [21]
  Nutsedge plant response rating: 0
[3]; [22]
  Nutsedge plant response rating: 0
[4]; [17]
  Plant response rating, Crabgrass: 2
[4]; [24]
  Crabgrass plant response rating: 3
[4]; [18]
  Plant response rating, Crabgrass: 9
[4]; [19]
  Crabgrass plant response rating: 10
[4]; [20]
  Crabgrass plant response rating: 9
[4]; [21]
  Crabgrass plant response rating: 8
[4]; [22]
  Crabgrass plant response rating: 9
[4]; [23]
  Crabgrass plant response rating: 10
[5]; [17]
  Plant response rating, Giant foxtail: 8
[5]; [24]
  Giant foxtail plant response rating: 9
[5]; [18]
  Plant response rating, Giant foxtail: 9
[5]; [19]
  Giant foxtail plant response rating: 10
[5]; [20]
  Giant foxtail plant response rating: 9
[5]; [21]
  Giant foxtail plant response rating: 9
[5]; [22]
  Giant foxtail plant response rating: 9
[5]; [23]
  Giant foxtail plant response rating: 10
[6]; [17]
  Plant response rating, Morningglory: 2
[6]; [24]
  Morningglory plant response rating: 4
[6]; [18]
  Plant response rating, Morningglory: 0
[6]; [19]
  Morningglory plant response rating: 0
[6]; [20]
  Morningglory plant response rating: 0
[6]; [21]
  Morningglory plant response rating: 4
[6]; [22]
  Morningglory plant response rating: 8
[6]; [23]
  Morningglory plant response rating: 0
[7]; [17]
  Plant response rating, Redroot pigweed: 7
[7]; [24]
  Redroot pigweed plant response rating: 8
[7]; [18]
  Plant response rating, Redroot pigweed: 8
[7]; [19]
  Redroot pigweed plant response rating: 8
[7]; [20]
  Redroot pigweed plant response rating: 8
[7]; [21]
  Redroot pigweed plant response rating: 8
[7]; [22]
  Redroot pigweed plant response rating: 8
[7]; [23]
  Redroot pigweed plant response rating: 10
[8]; [24]
  Bedstraw plant response rating: 7
[8]; [18]
  Plant response rating, Bedstraw: 1
[8]; [19]
  Bedstraw plant response rating: 3
[8]; [20]
  Bedstraw plant response rating: 0
[8]; [21]
  Bedstraw plant response rating: 7
[8]; [22]
  Bedstraw plant response rating: 8
[8]; [23]
  Bedstraw plant response rating: 4
[9]; [25]
  Rice plant response rating: 0
[9]; [26]
  Rice plant response rating: 0
[9]; [27]
  Rice plant response rating: 0
[9]; [28]
  Rice plant response rating: 0
[10]; [17]
  Plant response rating, B. signalgrass: 4
[10]; [24]
  B. signalgrass plant response rating: 5
[10]; Preemergence, Rate 62 g/ha, scale of 0 to 10 where 0 is no effect and 10 is complete control
  B. signalgrass plant response rating: 6
[10]; [18]
  Plant response rating, B. signalgrass: 6
[10]; [19]
  B. signalgrass plant response rating: 7
[10]; [21]
  B. signalgrass plant response rating: 6
[10]; [22]
  B. signalgrass plant response rating: 7
[10]; [23]
  B. signalgrass plant response rating: 8
[11]; [17]
  Plant response rating, Velvetleaf: 5
[11]; [18]
  Plant response rating, Velvetleaf: 4
[11]; [19]
  Velvetleaf plant response rating: 4
[11]; [20]
  Velvetleaf plant response rating: 2
[11]; [21]
  Velvetleaf plant response rating: 6
[11]; [22]
  Velvetleaf plant response rating: 7
[11]; [23]
  Velvetleaf plant response rating: 7
[12]; [17]
  Plant response rating, Wild oats: 0
[12]; [18]
  Plant response rating, Wild oats: 8
[12]; [19]
  Wild oats plant response rating: 8
[12]; [20]
  Wild oats plant response rating: 5
[12]; [21]
  Wild oats plant response rating: 1
[12]; [22]
  Wild oats plant response rating: 2
[12]; [23]
  Wild oats plant response rating: 9
[13]; [25]
  Barnyardgrass plant response rating: 0
[13]; [26]
  Barnyardgrass plant response rating: 0
[13]; [27]
  Barnyardgrass plant response rating: 0
[13]; [28]
  Barnyardgrass plant response rating: 0
[14]; [17]
  Plant response rating, Blackgrass: 3
[14]; [24]
  Blackgrass plant response rating: 6
[14]; [18]
  Plant response rating, Blackgrass: 8
[14]; [19]
  Blackgrass plant response rating: 8
[14]; [20]
  Blackgrass plant response rating: 6
[14]; [21]
  Blackgrass plant response rating: 6
[14]; [22]
  Blackgrass plant response rating: 6
[14]; [23]
  Blackgrass plant response rating: 9
[15]; [17]
  Plant response rating, Wheat: 0
[15]; [18]
  Plant response rating, Wheat: 5
[15]; [19]
  Wheat plant response rating: 5
[15]; [20]
  Wheat plant response rating: 4
[15]; [21]
  Wheat plant response rating: 5
[15]; [22]
  Wheat plant response rating: 6
[15]; [23]
  Wheat plant response rating: 7
[16]; [25]
  S. Flatsedge plant response rating: 0
[16]; [26]
  S. Flatsedge plant response rating: 0
[16]; [27]
  S. Flatsedge plant response rating: 0
[16]; [28]
  S. Flatsedge plant response rating: 0
